Experiment [1] addresses T1, E. coli CsgA (Escherichia coli, UniProt P28307).
T1 construct: made in house; host or cells: E. coli NEB 3016 slyD::kan, pET11d
As to the kind of experiment: In vitro ThioflavinT assay of CsgA aggregation (CsgA ThT Assay). The note with it: for remaining activity at 25 µM: compound 25 μM; for remaining activity at 100 µM: compound 100 μM. Type of experiment: biochemical. On the procedure: In vitro ThioflavinT assay to determine effects of compounds on CsgA aggregation. To assess the effects of compounds on aggregation of E. coli CsgA, a cell-free assay was performed using purified CsgA and Thioflavin T. In the assay, histidine-tagged CsgA was over-expressed in E. coli NEB 3016 slyD::kan cells harboring a pET11d vector containing a C-terminal 6× His tag. Following growth in rich media, CsgA production is induced at an OD600 of approximately 1.0 by addition of 0.5 mM IPTG (isopropyl beta-D-1-thiogalactopyranoside) followed by incubation at 37° C. for 1-4 hours with shaking at 200-250 rpm. Bacteria were resuspended in 8 M guanidine hydrochloride in 50 mM potassium phosphate buffer, pH 7.3 and lysed by sonication on ice using three 20 second intervals. The resulting lysate was incubated on a platform rocker for 1 hour at room temperature. After centrifugation at 10,000×g for 20 minutes, the supernatant was further sonicated on ice for three 20 second intervals and then incubated with nickel-nitrilotriacetic acid resin (Sigma) at room temperature for 1 hour in a 50 mL conical tube on a platform rocker. The resin was washed and pelleted 5 times with 45 mL 8 M guanidine in 50 mM potassium phosphate buffer pH 7.3. The resin was further washed and pelleted two times with 8 M guanidine hydrochloride in 50 mM potassium phosphate buffer pH 7.3 containing 12.5 mM imidazole. Purified CsgA protein was eluted two times with 5 mL of 6-8 M guanidine hydrochloride in 50 mM potassium phosphate buffer, pH 7.3 containing 250 mM imidazole. The eluted protein was aliquoted with 150 μL per aliquot, snap frozen in liquid nitrogen, and stored at −80 C. In order to obtain monomeric CsgA, the purified CsgA protein was thawed and passed through two pre-chilled desalting columns (Zeba) to remove imidazole and guanidine. The buffer exchanged protein was loaded onto a 30-kDa centrifugal filter unit (Amicon) and spun for 30 minutes at 7500×g to remove dimers and other oligomers. Protein concentration was assessed by the NanoDrop technique (Thermo Scientific), as is familiar to one skilled in the art. The CsgA aggregation assay was conducted in 96-well black non-binding surface or white untreated microplates with 20-40 μM ThioflavinT, 50 mM potassium phosphate buffer pH 7.3, 1% DMSO, CsgA at 2-20 μM, and compounds at 3.125-200 uM. The vehicle control wells contain all components of the assay except test compounds and represent the level of CsgA aggregation in the absence of any inhibitor or accelerator. Plates were incubated at room temperature in a Tecan Nano F200 plate reader with excitation at 438 nm using a 439 nm filter with a bandwidth of 8 nm, and emission at 495 nm with a 490 nm filter with a bandwidth of 10 nm, or in a SpectraMax M5, SpectraMax M2 or SpectraMax® i3X (Molecular Devices, San Jose, Calif.) spectrophotometer with excitation at 438 nm and emission at 495 nm. During the assay, plates were shaken initially for 5 seconds and subsequently for 3 seconds prior to fluorescent readings. Readings were performed every 15 minutes for up to 1005 minutes. The effect of compounds on CsgA aggregation in the assay was determined with data from 0-17 hours. Fluorescence values for each compound with CsgA were first adjusted by subtracting the average fluorescence of the compound in the absence of CsgA or in the presence of CsgA and compound at time 0 or 15 minutes. The data were analyzed in several ways:
1. The adjusted ThT fluorescence values were normalized by dividing them by the average fluorescence in the vehicle control wells containing CsgA. The median normalized fluorescence from 6-6.5 hours or 8-9 hours with the compound was expressed as a percentage of the median fluorescence observed in vehicle controls over the same time period. Percent inhibition of CsgA aggregation by a compound was determined by subtracting the percent average fluorescence with the compound relative to the vehicle controls from 100%. […]

Experiment [2] relates to CsgA gene expression (csgBAC promoter-GFP reporter) in E. coli UTI89. Kind of experiment: In vitro live cell fluorescent reporter assay of CsgA transcription (Reporter Assay). Type of experiment: cell-based. Particulars: Escherichia coli. On the procedure: In vitro live cell fluorescent reporter assay to determine effects of compounds on CsgA transcription. To assess the impact of compounds on CsgA gene expression, a live cell assay was performed using an engineered strain of E. coli UTI89 with a fluorescent CsgA gene expression reporter driven by the csgBAC promoter. In the reporter strain, a gene encoding Green Fluorescent Protein (GFP) was placed immediately downstream of the full intergenic region between csgDEF and csgBAC, containing the csgBAC promoter and other transcriptional regulatory elements, and inserted in single copy into the E. coli UTI89 chromosome, as described in Cegelski et. al., “Small-molecule inhibitors target Escherichia coli amyloid biogenesis and biofilm formation,” Nat. Chem. Bio., 25 Oct. 2009. With this construct, GFP expression in the reporter strain was under the same regulation as CsgA expression. The reporter strain was struck out on a YESCA agar plate (1 g/L yeast extract, 10 g/L casamino acids, 20 g/L Bacto Agar) and grown at about 27° C. for 2 days, or until single colonies were sufficiently large to pick. A single colony of the reporter strain was used to inoculate 5 mL of YESCA broth (1 g/L yeast extract, 10 g/L casamino acids), which was grown overnight at about 27° C. The inoculum was diluted 1:10 in YESCA broth and the optical density at 600 nm (OD600) was measured on a SpectraMax M2 or M5e (Molecular Devices, San Jose, Calif.) spectrophotometer in cuvettes. The culture was then further diluted to achieve a final OD600 of 0.003, which was confirmed by measurement of the OD600. Compounds were diluted in dimethyl sulfoxide (DMSO) and plated on black clear-bottomed tissue culture-treated 96-well plates with 1.5 μL/well for final test concentrations from 0.14-100 μM. All assay wells, including vehicle controls and positive controls for inhibition, included 1% DMSO final. Vehicle control wells consisted of DMSO and the reporter strain to assess the expression of the reporter strain in the assay in the absence of any compound. […] 148.5 μL culture at OD600 0.003 in YESCA broth was added to all wells for 150 μL final volume. Plates were incubated at 27° C. for 20 hours, then GFP fluorescence signal for each well was read on a Spectramax M2 or M5e plate reader with excitation at 485 nm, emission at 525 nm, and a cutoff at 515 nm. OD600 for each well was also measured on the Spectramax M2 or M5e plate reader. […] Background fluorescence was subtracted from all wells, then fluorescence signal for each well was normalized to the mean of the vehicle control wells. Normalized dose response curves were plotted for each compound, and compound inhibition of CsgA transcription was determined by assessing the curve-fit IC50, bottom, top, span (top-bottom), and Hill slope using GraphPad Prism software version 8.1.1 (GraphPad Software, San Diego, Calif.). An additional metric used to evaluate compounds was the concentration at which the curve reached 50% of the expression level of the vehicle control. This was written as a custom analysis in GraphPad Prism according to the formula X[50], or the X value at which Y=50, ie, the compound concentration at which fluorescence of the reporter strain was calculated to reach 50% of the vehicle control fluorescence. Separately from the fluorescence data, OD600 values were normalized to the mean of the vehicle control wells, and dose response curves were plotted for each compound. OD600 reduction of greater than 10% indicated compounds had some toxicity or negative impact on bacterial growth. […]

Setting [3] is: read-out: CsgA ThT Assay (2 μM CsgA) % Control Bmax 25 μM, activity range, class symbol, CsgA 2 μM, white plates.
The mark [4] stands for this setting: read-out: CsgA ThT Assay (2 μM CsgA) % Control Bmax 25 μM, mean Bmax as percentage of DMSO control, CsgA 2 μM, white plates.
[5] abbreviates: read-out: CsgA ThT Assay (2 μM CsgA) % Control Bmax 100 μM, activity range, class symbol, CsgA 2 μM, white plates.
[6] abbreviates: read-out: CsgA ThT Assay (2 μM CsgA) % Control Bmax 100 μM, mean Bmax as percentage of DMSO control, CsgA 2 μM, white plates.
Setting [7] is: read-out: Reporter Assay Abs IC50 (μM), median Abs IC50 in the CsgA reporter assay, N/A = maximum expression reduction is <50% of control.
Where [8] appears, read: read-out: Reporter Assay Abs IC50, activity range, class symbol.
The mark [9] stands for this setting: read-out: CsgA ThT Assay (10 μM CsgA) % Control AUC at 1005 minutes, 25 μM (activity range), CsgA 10 μM, black plates, 1005 minutes, class symbol.
Setting [10] is: read-out: CsgA ThT Assay (10 μM CsgA) % Control AUC at 1005 minutes, 25 μM, mean AUC as % of DMSO control, CsgA 10 μM, black plates, 1005 minutes.
Setting [11] is: read-out: CsgA ThT Assay (10 μM CsgA) % Control AUC at 1005 minutes, 100 μM (activity range), CsgA 10 μM, black plates, 1005 minutes, class symbol.
Setting [12] is: read-out: CsgA ThT Assay (10 μM CsgA) % Control AUC at 1005 minutes, 100 μM, mean AUC as % of DMSO control, CsgA 10 μM, black plates, 1005 minutes.
The mark [13] stands for this setting: read-out: Reporter Assay Abs IC50 (activity range), median Abs IC50 in the CsgA reporter assay, class symbol.

Like-named read-outs stand apart in the source and are kept apart here.

T1 sequence (P28307 23-151): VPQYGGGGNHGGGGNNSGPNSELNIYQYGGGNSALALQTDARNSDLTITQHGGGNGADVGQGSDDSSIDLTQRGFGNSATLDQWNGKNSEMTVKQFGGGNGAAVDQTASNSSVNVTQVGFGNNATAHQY

For `N#Cc1c(Cc2cccc3ccccc23)c(-c2cccc(C(F)(F)F)c2)c2n(c1=O)C(C(=O)O)CN2Cc1ccccc1` (centres unmarked) [Compound 185, 1-benzyl-6-cyano-7-(naphthalen-1-ylmethyl)-5-oxo-8-(3-(trifluoromethyl)phenyl)-1,2,3,5-tetrahydroimidazo[1,2-a]pyridine-3-carboxylic acid], the remaining activity at 25 µM in experiment [1] (setting [3]) was more than 60%; in experiment [1] (setting [4]) it was 69%. Moreover, the results for the remaining activity at 100 µM in experiment [1] (setting [5]) and in experiment [1] (setting [6]) were more than 60% and 91%, respectively. For the same compound, the IC50 in experiment [2] (setting [7]) was 1.8 µM; in experiment [2] (setting [8]) it was 1.3 to 4.5 µM.
Regarding `CCc1c(Cc2cccc3ccccc23)c(-c2cccc(C(F)(F)F)c2)c2n(c1=O)C(C(=O)O)CN([C@H]1CC[C@@H](O)CC1)S2(=O)=O` (some centres unmarked) [Compound 124, 7-ethyl-2-((1s,4s)-4-hydroxycyclohexyl)-8-(naphthalen-1-ylmethyl)-6-oxo-9-(3-(trifluoromethyl)phenyl)-3,4-dihydro-2H,6H-pyrido[1,2-e][1,2,5]thiadiazine-4-carboxylic acid 1,1-dioxide], the remaining activity at 25 µM in experiment [1] (setting [9]) is 31 to 60%; in experiment [1] (setting [10]), 35%. Moreover, the remaining activity at 100 µM in experiment [1] (setting [11]) was 11 to 31%; in experiment [1] (setting [12]), 21%. The half-maximal inhibitory concentration (IC50) in experiment [2] (setting [13]) is 1.3 to 4.5 µM; in experiment [2] (setting [7]), 3.1 µM.
On to `CN1CC(C(=O)O)n2c(c(-c3cccc(C(F)(F)F)c3)c(Cc3cccc4ccccc34)c(CO)c2=O)S1(=O)=O` (centres unmarked) [Compound 077, 7-(hydroxymethyl)-2-methyl-8-(naphthalen-1-ylmethyl)-6-oxo-9-(3-(trifluoromethyl)phenyl)-3,4-dihydro-2H,6H-pyrido[1,2-e][1,2,5]thiadiazine-4-carboxylic acid 1,1-dioxide], for which the figures for the remaining activity at 25 µM in experiment [1] (setting [9]) and in experiment [1] (setting [10]) were more than 60% and 97%, respectively. Also, the remaining activity at 100 µM is more than 60% in experiment [1] (setting [11]) and 87% in experiment [1] (setting [12]). In addition, the half-maximal inhibitory concentration (IC50) is more than 10 µM in experiment [2] (setting [13]) and 51.6 µM in experiment [2] (setting [7]).
Consider `O=C(O)c1c(Cc2cccc3ccccc23)c(-c2cccc(C(F)(F)F)c2)c2n(c1=O)C(C(=O)O)CN2Cc1ccccc1` (centres unmarked) [Compound 209, 1-benzyl-7-(naphthalen-1-ylmethyl)-5-oxo-8-(3-(trifluoromethyl)phenyl)-1,2,3,5-tetrahydroimidazo[1,2-a]pyridine-3,6-dicarboxylic acid], for which the remaining activity at 25 µM in experiment [1] (setting [3]) was more than 60%; in experiment [1] (setting [4]) it was 81%. Besides, the remaining activity at 100 µM in experiment [1] (setting [5]) was more than 60%; in experiment [1] (setting [6]) it was 64%. In addition, the half-maximal inhibitory concentration (IC50) in experiment [2] (setting [7]) was 6.6 µM; in experiment [2] (setting [8]) it was 4.6 to 10 µM.
Consider `CCCCN1CC(C(=O)O)n2c(c(-c3cccc(C(F)(F)F)c3)c(Cc3cccc4ccccc34)c(N)c2=O)S1(=O)=O` (centres unmarked) [Compound 093, 7-amino-2-butyl-8-(naphthalen-1-ylmethyl)-6-oxo-9-(3-(trifluoromethyl)phenyl)-3,4-dihydro-2H,6H-pyrido[1,2-e][1,2,5]thiadiazine-4-carboxylic acid 1,1-dioxide], for which the remaining activity at 25 µM in experiment [1] (setting [9]) is 31 to 60%; in experiment [1] (setting [10]) it was 49%. Further, the remaining activity at 100 µM in experiment [1] (setting [11]) is 31 to 60%; in experiment [1] (setting [12]), 37%. Further, the IC50 in experiment [2] (setting [13]) is 1.3 to 4.5 µM; in experiment [2] (setting [7]), 3.6 µM.
Consider `O=C(O)C1CN(Cc2ccccc2)c2c(-c3cccc(C(F)(F)F)c3)c(Cc3ccc(Cl)c4ccccc34)c(Cl)c(=O)n21` (centres unmarked) [Compound 225, 1-benzyl-6-chloro-7-((4-chloronaphthalen-1-yl)methyl)-5-oxo-8-(3-(trifluoromethyl)phenyl)-1,2,3,5-tetrahydroimidazo[1,2-a]pyridine-3-carboxylic acid], for which the 50% inhibitory concentration (IC50) is 1.6 µM in experiment [2] (setting [7]) and 1.3 to 4.5 µM in experiment [2] (setting [8]).

For the origin of these results see patent publication US20230131899A1, “INHIBITORS OF MICROBIALLY INDUCED AMYLOID” (Axial Therapeutics, Inc., priority 2020, published 2023).
